Key:
[1] = Solubility (physical properties); assay type: physicochemical
[2] = tested on: ACHN (Renal Cell Carcinoma); test: Monolayer assay (CCK-8 cytotoxicity); assay type: cell-based; settings: Homo sapiens, 24 hrs exposure
Method: (§1) The assays were designed as in the reference, BMC Cancer, 2010, 10, 610, 1-11; the disclosure of which is incorporated by reference for the teaching of the assay.
(§2) Human tumour cell lines: Panc-1 (Pancreatic Cancer), HCT 116 (Colorectal Cancer), ACHN (Renal Cell Carcinoma), Calu-1 (Lung Carcinoma), MiaPaca2 (Pancreatic Cancer), FADU (Head and Neck Cancer), PC3 (prostate Cancer), G361 (Melanoma), MDA-MB435S (Melanoma), HeLa (Cervical Cancer) were grown in Minimal Essential Media with Eagle's Basal Salts (MEM-EBS) obtained from AMIMED (BioConcept-Switzerland). Tumour cell lines: MDA-MB231 (Breast Cancer), JURKAT (T cell leukaemia), H460 (Small Cell Lung Cancer) were cultured in RPMI 1640 (AMIMED, BioConcept, Switzerland) medium. All tumour cell lines were supplemented with 10% Foetal Bovine Serum (FBS) (GIBCO), 1% Penicillin/Streptomycin (Sigma) and 1% Anti-Anti (GIBCO) and grown in T-175 tissue culture flasks (Nunc). MCF-10A, a non-tumourigenic cell line, was cultured in Mammary Epithelial Basal Medium (MEBM) with all standard additions (Lonza, Catalog. No. CC-3150). All cells were grown in 5% CO2 incubator at 37° C. Cells were passaged at 80-90% confluence. Adherent cells were trypsinised using Trypsin-EDTA (Sigma) and maintained. All cell lines were purchased from ATCC (Rockville, Md., USA).
(§3) Compound of Formula (1a) [described in example 7] was dissolved in DMSO to give a required stock solution of 20 mM. Eight different concentrations of the compound of Formula (1a) were prepared by serial dilution of stock solution finally resulting in a (compared to the test concentration) 200-fold higher concentration. Compound of Formula (1a) was tested at the concentration of 0.0001 μM, 0.001 μM, 0.01 μM, 0.03 μM, 0.1 μM, 0.3 μM, 1 μM and 3 μM respectively. Each concentration was evaluated in triplicate.
(§4) Method for determination of IC50 of the compound of Formula (1a): • a) Different cancer/normal cells were seeded at a density of 3000 cells/200 μL well, in a tissue culture grade 96 well plate and allowed them to recover for 24 hrs in a humidified 5±0.2% CO2 incubator at 37±0.5° C. • b) After 24 hrs, 1 μL of 200× (200 times higher than required concentration is denoted as 200×) compound of Formula (1a), dissolved in DMSO, was added to the above tissue culture plate seeded with cancer/normal cells. The final concentration of DMSO was 0.5% in wells. DMSO was used as a vehicle control. • c) After 24 hrs the plate was removed from CO2 incubator and 5 μL of CCK-8 (Dojindo Molecular Technologies, Inc. USA, catalog, no. CK04-20) per well was added. • d) The plate was then placed at 37° C. for 2 hrs. • e) The absorbance was recorded at 450 nm. • f) The percent cytotoxicity was calculated using the following formula
(§5) The IC50 value was estimated by visual inspection of the concentration-effect curve. For calculation of mean IC50 values over the fourteen cell lines as tested, the geometric mean was selected.

[3] = tested on: JURKAT (T cell leukaemia); test: Monolayer assay (CCK-8 cytotoxicity); assay type: cell-based; settings: Homo sapiens, 24 hrs exposure
Method: as §1, §2, §3, §4, §5

MDA-MB435S (Melanoma) = test: Monolayer assay (CCK-8 cytotoxicity); assay type: cell-based; settings: Homo sapiens, MDA-MB-435S, MDAMB435S, 24 hrs exposure
Method: as §1, §2, §3, §4, §5

G361 (Melanoma) = test: Monolayer assay (CCK-8 cytotoxicity); assay type: cell-based; settings: Homo sapiens, G-361, 24 hrs exposure
Method: as §1, §2, §3, §4, §5

Calu-1 (Lung Carcinoma) = test: Monolayer assay (CCK-8 cytotoxicity); assay type: cell-based; settings: Homo sapiens, 24 hrs exposure
Method: as §1, §2, §3, §4, §5

H460 = test: Monolayer assay (CCK-8 cytotoxicity); assay type: cell-based; settings: Homo sapiens, NCI-H460, H460, Non Small Cell Lung, 24 hrs exposure
Method: as §1, §2, §3, §4, §5

HeLa (Cervical Cancer) = test: Monolayer assay (CCK-8 cytotoxicity); assay type: cell-based; settings: Homo sapiens, 24 hrs exposure
Method: as §1, §2, §3, §4, §5

[4] = tested on: FADU (Head and Neck Cancer); test: Monolayer assay (CCK-8 cytotoxicity); assay type: cell-based; settings: Homo sapiens, 24 hrs exposure
Method: as §1, §2, §3, §4, §5

[5] = tested on: Panc-1 (Pancreatic Cancer); test: Monolayer assay (CCK-8 cytotoxicity); assay type: cell-based; settings: Homo sapiens, 24 hrs exposure
Method: as §1, §2, §3, §4, §5

[6] = tested on: MCF-10A, a non-tumourigenic cell line; test: Monolayer assay (CCK-8 cytotoxicity), normal cells; assay type: cell-based; settings: MCF10A, Normal Breast Epithelium, 24 hrs exposure, CCK-8
Method: as §1, §2, §3, §4, §5
(§6) The assays were designed as described above in example 16.
(§7) The IC50 value was estimated by visual inspection of the concentration-effect curve. For calculation of mean IC50 values over the six cell lines (PC3, MDA MB, HCT116, MCF7, MIAPaCa2, MCF10A) as tested, the geometric mean was selected.

[7] = tested on: HCT 116 (Colorectal Cancer); test: Monolayer assay (CCK-8 cytotoxicity); assay type: cell-based, human; settings: Homo sapiens, HCT-116; HCT116, Colon; 24 hrs exposure, CCK-8; read-out: IC50
Method: as §1, §2, §3, §4, §5, §6, §7

PC3 (prostate Cancer) = test: Monolayer assay (CCK-8 cytotoxicity); assay type: cell-based, human; settings: Homo sapiens; PC3, Prostate; 24 hrs exposure, CCK-8; read-out: IC50
Method: as §1, §2, §3, §4, §5, §6, §7

[8] = tested on: MDA-MB231 (Breast Cancer); test: Monolayer assay (CCK-8 cytotoxicity); assay type: cell-based, human; settings: Homo sapiens, MDA-MB-231; MDAMB231, Breast; 24 hrs exposure, CCK-8; read-out: IC50
Method: as §1, §2, §3, §4, §5, §6, §7

For CC(C)CC1CCC(O)(C(C)(O)C(=O)NC2C(=O)N3NCCCC3C(=O)N(O)C(C)C(=O)NCC(=O)N3NCCCC3C(=O)N(O)C(C)C(=O)OC2C(C)C)OC1C (stereo not shown) [Formula (1a), N-(6,18-dihydroxy-22-isopropyl-7,19-dimethyl-5,8,11,17,20,24-hexaoxotetracosa hydrodipyridazino[6,1-f:6′,1′-o][1,4,7,10,13,16]oxapentaazacyclononadecin-23-yl)-2-hydroxy-2-(2-hydroxy-5-isobutyl-6-methyltetrahydro-2H-pyran-2-yl)propanamide], the “Solubility in organic solvents” value ([1]; chloroform, ethyl acetate and methanol) was “Soluble in chloroform, ethyl acetate and methanol;”, the Solubility in water ([1]; water) was “insoluble in water” and the IC50 [2] was 7.1 ± 0.64 nM. For the same compound, the IC50 [3] was 15.9 ± 2.6 nM, the IC50 (MDA-MB435S (Melanoma)) was 2.9 ± 0.48 nM and the IC50 (G361 (Melanoma)) was 24.1 ± 4.3 nM. For the same compound, the IC50 (Calu-1 (Lung Carcinoma)) was 25.2 ± 3.5 nM, the IC50 (H460) was 9.2 ± 0.76 nM and the IC50 (HeLa (Cervical Cancer)) was 10.1 ± 3.1 nM. The IC50 [4] was 22.4 ± 1.2 nM, the IC50 [5] was 1.3 ± 0.32 nM and the IC50 ([6]; Homo sapiens, MCF-10A, 24 h) was 19 nM. The IC50 [6] was 19.7 ± 3.1 nM, the IC50 [7] was 15.1 ± 2.3 nM and the IC50 (PC3 (prostate Cancer)) was 5.2 ± 0.41 nM. The IC50 [8] was 6.1 ± 0.52 nM.

From patent US9475842B2, “Hexadepsipeptide analogues as anticancer compounds” (PIRAMAL ENTERPRISES LIMITED, priority 2012, dated 2016)
